# Assay results reported in ChEMBL document CHEMBL1201861, “Genomics of Drug Sensitity in Cancer screening data, Wellcome Trust Sanger Institute”.
# Legend:
# Test in all cases: cells
# [1] = system: CaR-1; type: functional, cell-based, Homo sapiens; conditions: Homo sapiens, CaR-1;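 further: growth inhibition of human CaR-1 cancer cells, read out with a cell viability assay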
# Description: SANGER: Inhibition of human CaR-1 cell growth in a cell viability assay.
# [2] = system: DB; type: functional, cell-based; conditions: Homo sapiens
# Description: SANGER: Inhibition of human DB cell growth in a cell viability assay.
# [3] = system: GCIY; type: functional, cell-based, Homo sapiens; conditions: Homo sapiens, GCIY;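 further: growth inhibition of the human GCIY cell line, read out by a cell viability assay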
# Description: SANGER: Inhibition of human GCIY cell growth in a cell viability assay.
# [4] = system: IST-MEL1; type: functional, cell-based, Homo sapiens; conditions: Homo sapiens, IST-MEL1;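 further: growth inhibition of the cell line, read out with a cell viability assay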
# Description: SANGER: Inhibition of human IST-MEL1 cell growth in a cell viability assay.
# [5] = system: J82; type: functional, cell-based; conditions: Homo sapiens;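 further: growth inhibition of J82 cells, read out with a cell viability assay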
# Description: SANGER: Inhibition of human J82 cell growth in a cell viability assay.
# [6] = system: KINGS-1; type: functional, cell-based, Homo sapiens; conditions: Homo sapiens, KINGS-1;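 further: cell viability assay measuring suppression of KINGS-1 cell growth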
# Description: SANGER: Inhibition of human KINGS-1 cell growth in a cell viability assay.
# [7] = system: KYSE-410; type: functional, cell-based, Homo sapiens; conditions: Homo sapiens, KYSE-410;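 further: growth inhibition of KYSE-410 cells, measured through a cell viability readout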
# Description: SANGER: Inhibition of human KYSE-410 cell growth in a cell viability assay.
# [8] = system: KYSE-70 cell line; type: functional, cell-based, Homo sapiens; conditions: Homo sapiens, KYSE-70;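 further: cell viability assay read-out, with IC50 expressing suppression of KYSE-70 cell growth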
# Description: SANGER: Inhibition of human KYSE-70 cell growth in a cell viability assay.
# [9] = system: L-428; type: functional, cell-based; conditions: Homo sapiens
# Description: SANGER: Inhibition of human L-428 cell growth in a cell viability assay.
# [10] = system: LB2518-MEL; type: functional, cell-based, Homo sapiens; conditions: Homo sapiens, LB2518-MEL;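 further: growth inhibition of human LB2518-MEL cells, measured with a cell viability assay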
# Description: SANGER: Inhibition of human LB2518-MEL cell growth in a cell viability assay.
# [11] = system: LCLC-97TM1; type: functional, cell-based, Homo sapiens; conditions: Homo sapiens, LCLC-97TM1;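 further: cell viability assay measuring growth inhibition of human LCLC-97TM1 cells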
# Description: SANGER: Inhibition of human LCLC-97TM1 cell growth in a cell viability assay.
# [12] = system: LS-1034; type: functional, cell-based, Homo sapiens; conditions: Homo sapiens, LS-1034
# Description: SANGER: Inhibition of human LS-1034 cell growth in a cell viability assay.
# [13] = system: LU-134-A; type: functional, cell-based; conditions: Homo sapiens
# Description: SANGER: Inhibition of human LU-134-A cell growth in a cell viability assay.
# [14] = system: Lu-65; type: functional, cell-based; conditions: Homo sapiens;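 further: growth inhibition of Lu-65 cancer cells, read out by a cell viability assay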
# Description: SANGER: Inhibition of human LU-65 cell growth in a cell viability assay.
# [15] = system: LoVo; type: functional, cell-based; conditions: Homo sapiens;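 further: growth inhibition of human LoVo cells, read out with a cell viability assay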
# Description: SANGER: Inhibition of human LoVo cell growth in a cell viability assay.
# [16] = system: M14; type: functional, cell-based, Homo sapiens; conditions: Homo sapiens, M14;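 further: growth inhibition of M14 cells, read out with a cell viability assay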
# Description: SANGER: Inhibition of human M14 cell growth in a cell viability assay.
# [17] = system: MDA-MB-175-VII; type: functional, cell-based, Homo sapiens; conditions: Homo sapiens, MDA-MB-175-VII
# [18] = system: MDA-MB-415; type: functional, cell-based; conditions: Homo sapiens
# [19] = system: MFH-ino; type: functional, cell-based; conditions: Homo sapiens;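 further: growth inhibition of human MFH-ino cells, read out by a cell viability assay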
# Description: SANGER: Inhibition of human MFH-ino cell growth in a cell viability assay.
# [20] = system: MKN-1; type: functional, cell-based, Homo sapiens; conditions: Homo sapiens, MKN-1;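 further: growth inhibition of human MKN1 cells, read out by a cell viability measurement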
# Description: SANGER: Inhibition of human MKN1 cell growth in a cell viability assay.
# [21] = system: MKN-7; type: functional, cell-based, Homo sapiens; conditions: Homo sapiens, MKN-7;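 further: growth inhibition of MKN-7 cells, read out with a cell viability assay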
# Description: SANGER: Inhibition of human MKN7 cell growth in a cell viability assay.
# [22] = system: MN-60; type: functional, cell-based; conditions: Homo sapiens;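 further: growth inhibition of the MN-60 cell line, determined with a cell viability assay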
# Description: SANGER: Inhibition of human MN-60 cell growth in a cell viability assay.
# [23] = system: NB10; type: functional, cell-based, Homo sapiens; conditions: Homo sapiens, NB10;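 further: growth inhibition of NB10 cells, read out by a cell viability assay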
# Description: SANGER: Inhibition of human NB10 cell growth in a cell viability assay.
# [24] = system: NCI-H1838; type: functional, cell-based, Homo sapiens; conditions: Homo sapiens, NCI-H1838;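 further: growth inhibition of NCI-H1838 cells, determined with a cell viability readout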
# Description: SANGER: Inhibition of human NCI-H1838 cell growth in a cell viability assay.
# [25] = system: NCI-H446; type: functional, cell-based; conditions: Homo sapiens;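 further: growth inhibition of NCI-H446 cells determined by a cell viability assay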
# Description: SANGER: Inhibition of human NCI-H446 cell growth in a cell viability assay.
# [26] = system: NCI-H526; type: functional, cell-based; conditions: Homo sapiens;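 further: growth inhibition of the human NCI-H526 cell line, measured by a cell viability assay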
# Description: SANGER: Inhibition of human NCI-H526 cell growth in a cell viability assay.
# [27] = system: PA-1; type: functional, cell-based, Homo sapiens; conditions: Homo sapiens, PA-1;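 further: IC50 for suppression of PA-1 cell proliferation, determined with a cell viability read-out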
# Description: SANGER: Inhibition of human PA-1 cell growth in a cell viability assay.
# [28] = system: PFSK-1; type: functional, cell-based, Homo sapiens; conditions: Homo sapiens, PFSK-1;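 further: cell viability assay measuring how strongly compounds suppress growth of human PFSK-1 cells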
# Description: SANGER: Inhibition of human PFSK-1 cell growth in a cell viability assay.
# [29] = system: RERF-LC-MS; type: functional, cell-based, Homo sapiens; conditions: Homo sapiens, RERF-LC-MS;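 further: growth inhibition of human RERF-LC-MS cells, read out by a cell viability assay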
# Description: SANGER: Inhibition of human RERF-LC-MS cell growth in a cell viability assay.
# [30] = system: RT-112; type: functional, cell-based, Homo sapiens; conditions: Homo sapiens, RT-112
# Description: SANGER: Inhibition of human RT-112 cell growth in a cell viability assay.
# [31] = system: SCC-15; type: functional, cell-based, Homo sapiens; conditions: Homo sapiens, SCC-15;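 further: growth inhibition of SCC-15 cells, read out with a cell viability assay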
# Description: SANGER: Inhibition of human SCC-15 cell growth in a cell viability assay.
# [32] = system: SK-N-DZ; type: functional, cell-based, Homo sapiens; conditions: Homo sapiens, SK-N-DZ;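 further: growth inhibition of the cancer cell line, read out through a viability assay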
# Description: SANGER: Inhibition of human SK-N-DZ cell growth in a cell viability assay.
# [33] = system: SW1088; type: functional, cell-based, Homo sapiens; conditions: Homo sapiens, SW1088;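 further: growth inhibition of human SW1088 cells, read out by a cell viability assay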
# Description: SANGER: Inhibition of human SW1088 cell growth in a cell viability assay.
# [34] = system: SW948; type: functional, cell-based, Homo sapiens; conditions: Homo sapiens, SW948;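 further: growth inhibition of SW948 cells, read out with a cell viability assay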
# Description: SANGER: Inhibition of human SW948 cell growth in a cell viability assay.
# [35] = system: SiHa; type: functional, cell-based, Homo sapiens; conditions: Homo sapiens, SiHa;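 further: Viability-based readout of growth inhibition in SiHa cells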
# Description: SANGER: Inhibition of human SiHa cell growth in a cell viability assay.
# [36] = system: TCC-SUP; type: functional, cell-based, Homo sapiens; conditions: Homo sapiens, TCC-SUP;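 further: growth inhibition of TCC-SUP cells, read out with a cell viability assay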
# Description: SANGER: Inhibition of human TCCSUP cell growth in a cell viability assay.
# [37] = system: 786-0; type: functional, cell-based, Homo sapiens; conditions: Homo sapiens
# Description: SANGER: Inhibition of human 786-0 cell growth in a cell viability assay.
# [38] = system: A-427; type: functional, cell-based, Homo sapiens; conditions: Homo sapiens, A-427;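 further: growth inhibition of human A-427 cells, read out by a cell viability assay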
# Description: SANGER: Inhibition of human A427 cell growth in a cell viability assay.
# [39] = system: A498; type: functional, cell-based, Homo sapiens; conditions: Homo sapiens, A498;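 further: growth inhibition of human A498 cells, read out with a cell viability assay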
# Description: SANGER: Inhibition of human A498 cell growth in a cell viability assay.
# [40] = system: AN3-CA; type: functional, cell-based; conditions: Homo sapiens;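 further: growth inhibition of human AN3-CA cells measured by a cell viability assay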
# Description: SANGER: Inhibition of human AN3-CA cell growth in a cell viability assay.
# [41] = system: BB49-HNC; type: functional, cell-based, Homo sapiens; conditions: Homo sapiens, BB49-HNC;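 further: cell viability assay read-out, reported as inhibition of BB49-HNC cell growth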
# Description: SANGER: Inhibition of human BB49-HNC cell growth in a cell viability assay.
# [42] = system: BB65-RCC; type: functional, cell-based, Homo sapiens; conditions: Homo sapiens, BB65-RCC;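 further: growth inhibition of the cell line, measured with a cell viability assay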
# Description: SANGER: Inhibition of human BB65-RCC cell growth in a cell viability assay.
# [43] = system: BCPAP; type: functional, cell-based, Homo sapiens; conditions: Homo sapiens, BCPAP;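 further: growth inhibition of BCPAP cells, read out in a cell viability assay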
# Description: SANGER: Inhibition of human BCPAP cell growth in a cell viability assay.
# [44] = system: BPH-1; type: functional, cell-based, Homo sapiens; conditions: Homo sapiens, BPH-1;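 further: cell viability assay measuring growth inhibition of human BPH-1 cells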
# Description: SANGER: Inhibition of human BPH-1 cell growth in a cell viability assay.
# [45] = system: BT-474; type: functional, cell-based, Homo sapiens; conditions: Homo sapiens, BT-474
# Description: SANGER: Inhibition of human BT-474 cell growth in a cell viability assay.
# [46] = system: C32; type: functional, cell-based, Homo sapiens; conditions: Homo sapiens, C32;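 further: cell viability assay, with IC50 reflecting inhibition of C32 cell growth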
# Description: SANGER: Inhibition of human C32 cell growth in a cell viability assay.
# [47] = system: C3A; type: functional, cell-based, Homo sapiens; conditions: Homo sapiens, C3A;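 further: growth inhibition of C3A human cells, quantified with a cell viability readout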
# Description: SANGER: Inhibition of human C3A cell growth in a cell viability assay.
# [48] = system: CAL-120; type: functional, cell-based, Homo sapiens; conditions: Homo sapiens, CAL-120;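 further: cell growth inhibition, read out as cell viability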
# Description: SANGER: Inhibition of human CAL-120 cell growth in a cell viability assay.
# [49] = system: U-118-MG; type: functional, cell-based, Homo sapiens; conditions: Homo sapiens, U-118-MG
# Description: SANGER: Inhibition of human U-118-MG cell growth in a cell viability assay.
# [50] = system: U-266; type: functional, cell-based; conditions: Homo sapiens
# Description: SANGER: Inhibition of human U-266 cell growth in a cell viability assay.
# [51] = system: UO-31; type: functional, cell-based; conditions: Homo sapiens;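 further: cell viability assay measuring inhibition of cell growth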
# Description: SANGER: Inhibition of human U031 cell growth in a cell viability assay.
# [52] = system: CHP-212; type: functional, cell-based, Homo sapiens; conditions: Homo sapiens, CHP-212
# Description: SANGER: Inhibition of human CHP-212 cell growth in a cell viability assay.
smiles,measurement,setting,value
CCC1=C[C@@H]2CN(C1)Cc1c([nH]c3ccccc13)[C@@](C(=O)OC)(c1cc3c(cc1OC)N(C)[C@H]1[C@@](O)(C(=O)OC)[C@H](OC(C)=O)[C@]4(CC)C=CCN5CC[C@]31[C@@H]54)C2 [VINORELBINE],IC50,[1],59.1 nM
same,IC50,[2],19.4 nM
same,IC50,[3],57.9 nM
same,IC50,[4],> 64 nM
same,IC50,[5],> 64 nM
same,IC50,[6],> 64 nM
same,IC50,[7],6.21 nM
same,IC50,[8],16.7 nM
same,IC50,[9],> 64 nM
same,IC50,[10],> 64 nM
same,IC50,[11],1.56 nM
same,IC50,[12],> 64 nM
same,IC50,[13],47.2 nM
same,IC50,[14],24.5 nM
same,IC50,[15],7.9 nM
same,IC50,[16],21.1 nM
same,IC50,[17],> 64 nM
same,IC50,[18],24.1 nM
same,IC50,[19],5.6 nM
same,IC50,[20],11.8 nM
same,IC50,[21],> 64 nM
same,IC50,[22],> 64 nM
same,IC50,[23],> 64 nM
same,IC50,[24],> 64 nM
same,IC50,[25],14.8 nM
same,IC50,[26],8.68 nM
same,IC50,[27],3.12 nM
same,IC50,[28],20.5 nM
same,IC50,[29],10.2 nM
same,IC50,[30],3.37 nM
same,IC50,[31],8.7 nM
same,IC50,[32],> 64 nM
same,IC50,[33],> 64 nM
same,IC50,[34],19.8 nM
same,IC50,[35],> 64 nM
same,IC50,[36],27.1 nM
same,IC50,[37],2.99 nM
same,IC50,[38],3.1 nM
same,IC50,[39],26.2 nM
same,IC50,[40],6.27 nM
same,IC50,[41],> 64 nM
same,IC50,[42],61.8 nM
same,IC50,[43],2.98 nM
same,IC50,[44],1.9 nM
same,IC50,[45],28.5 nM
same,IC50,[46],> 64 nM
same,IC50,[47],> 64 nM
same,IC50,[48],43.6 nM
same,IC50,[49],> 64 nM
same,IC50,[50],17.5 nM
same,IC50,[51],> 64 nM
same,IC50,[52],24.6 nM
COc1cc([C@@H]2c3cc4c(cc3[C@@H](O[C@@H]3O[C@@H]5CO[C@@H](C)O[C@H]5[C@H](O)[C@H]3O)[C@H]3COC(=O)[C@H]23)OCO4)cc(OC)c1O [ETOPOSIDE],IC50,[1],8600 nM
same,IC50,[2],6530 nM
same,IC50,[3],925 nM
same,IC50,[4],3000 nM
same,IC50,[5],3340 nM
same,IC50,[6],> 16000 nM
same,IC50,[7],12800 nM
same,IC50,[8],> 16000 nM
same,IC50,[9],2990 nM
same,IC50,[10],> 16000 nM
same,IC50,[11],766 nM
same,IC50,[12],> 16000 nM
same,IC50,[13],299 nM
same,IC50,[14],> 16000 nM
same,IC50,[15],2060 nM
same,IC50,[16],7950 nM
same,IC50,[17],> 16000 nM
same,IC50,[18],> 16000 nM
same,IC50,[19],751 nM
same,IC50,[20],382 nM
same,IC50,[21],> 16000 nM
same,IC50,[22],> 16000 nM
same,IC50,[23],16000 nM
same,IC50,[24],> 16000 nM
same,IC50,[25],> 16000 nM
same,IC50,[26],456 nM
same,IC50,[27],132 nM
same,IC50,[28],> 16000 nM
same,IC50,[29],2490 nM
same,IC50,[30],621 nM
same,IC50,[31],13100 nM
same,IC50,[32],> 16000 nM
same,IC50,[33],> 16000 nM
same,IC50,[34],> 16000 nM
same,IC50,[35],> 16000 nM
same,IC50,[36],11600 nM
same,IC50,[37],492 nM
same,IC50,[38],103 nM
same,IC50,[39],> 16000 nM
same,IC50,[40],2200 nM
same,IC50,[41],> 16000 nM
same,IC50,[42],979 nM
same,IC50,[43],737 nM
same,IC50,[44],943 nM
same,IC50,[45],> 16000 nM
same,IC50,[46],> 16000 nM
same,IC50,[47],7930 nM
same,IC50,[48],15600 nM
same,IC50,[49],> 16000 nM
same,IC50,[50],> 16000 nM
same,IC50,[51],11300 nM
same,IC50,[52],1410 nM
